Read-outs that look alike come from different tables or passages of the source.
Key:
[1] = target: T1, GSK-3β (AA 1-420) (Homo sapiens, UniProt P49841); experiment: Ki determination for the inhibition of GSK-3 (coupled enzyme system); format: biochemical; details: 20 μM ATP, 20 nM GSK-3β, 30° C.
T1 construct: GSK-3β (AA 1-420)
In short: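 GSK-3β (AA 1-420, 20 nM) was run in a pyruvate kinase/LDH-coupled NADH assay in 100 mM HEPES pH 7.5, 10 mM MgCl2, 25 mM NaCl, 1 mM DTT, 1.5% DMSO, with 300 μM phosphopeptide substrate. Compound (0.002–30 μM) was preincubated 10 min at 30° C, then 20 μM ATP was added.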

[2] = target: CDK-2/Cyclin A (Homo sapiens, UniProt P24941); experiment: CDK-2 inhibition assay (coupled enzyme assay); format: biochemical; details: 25 nM CDK-2/Cyclin A, 30° C.
Procedure: Compounds were screened in the following manner for their ability to inhibit CDK-2 using a standard coupled enzyme assay (Fox et al (1998) Protein Sci 7, 2249).
To an assay stock buffer solution containing 0.1M HEPES 7.5, 10 mM MgCl2, 1 mM DTT, 25 mM NaCl, 2.5 mM phosphoenolpyruvate, […], 30 mg/ml pyruvate kinase, 10 mg/ml lactate dehydrogenase, 100 mM ATP, and 100 μM peptide ([…], American Peptide, Sunnyvale, Calif.) was added a DMSO solution of a compound of the present invention to a final concentration of 30 μM. The resulting mixture was incubated at 30° C. for 10 min.
The reaction was initiated by the addition of 10 μL of CDK-2/Cyclin A stock solution to give a final concentration of 25 nM in the assay. The rates of reaction were obtained by monitoring absorbance at 340 nm over a 5-minute read time at 30° C. using a BioRad Ultramark plate reader (Hercules, Calif.). The Ki values were determined from the rate data as a function of inhibitor concentration.

[3] = target: T2, Aurora-2 (Homo sapiens, UniProt O14965); experiment: Ki determination for the inhibition of Aurora-2 (coupled enzyme assay); format: biochemical; details: 70 nM Aurora-2, 30° C.
T2 sequence (O14965 1-403): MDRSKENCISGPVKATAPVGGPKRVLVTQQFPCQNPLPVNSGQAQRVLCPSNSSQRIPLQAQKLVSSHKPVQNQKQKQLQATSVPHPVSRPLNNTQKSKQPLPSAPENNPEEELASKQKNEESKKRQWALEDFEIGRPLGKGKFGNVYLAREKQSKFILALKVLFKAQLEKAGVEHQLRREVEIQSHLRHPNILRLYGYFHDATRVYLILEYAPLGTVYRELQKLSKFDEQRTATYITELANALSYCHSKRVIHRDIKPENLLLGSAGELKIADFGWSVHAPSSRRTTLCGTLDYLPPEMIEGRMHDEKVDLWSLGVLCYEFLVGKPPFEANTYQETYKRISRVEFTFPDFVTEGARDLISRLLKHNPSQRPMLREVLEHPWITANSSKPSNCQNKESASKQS
In short: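 Ki came from reaction rates plotted against inhibitor concentration, with rates taken as A340 decrease over 5 min at 30° C. Enzyme (70 nM final) was added after 10 min compound preincubation; stock buffer held […], 800 μM LRRASLG, PK/LDH coupling, pH 7.5.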

[4] = target: T3, human Src kinase (Homo sapiens, UniProt P12931); experiment: SRC inhibition assay (radioactivity-based or spectrophotometric assay); format: biochemical; details: recombinant human Src kinase, assay A or B
T3 construct: full length recombinant human Src kinase (from Upstate Biotechnology, cat. no. 14-117); purchased Upstate Biotechnology 14-117; host or cells: baculo viral cells
T3 sequence (P12931 whole entry): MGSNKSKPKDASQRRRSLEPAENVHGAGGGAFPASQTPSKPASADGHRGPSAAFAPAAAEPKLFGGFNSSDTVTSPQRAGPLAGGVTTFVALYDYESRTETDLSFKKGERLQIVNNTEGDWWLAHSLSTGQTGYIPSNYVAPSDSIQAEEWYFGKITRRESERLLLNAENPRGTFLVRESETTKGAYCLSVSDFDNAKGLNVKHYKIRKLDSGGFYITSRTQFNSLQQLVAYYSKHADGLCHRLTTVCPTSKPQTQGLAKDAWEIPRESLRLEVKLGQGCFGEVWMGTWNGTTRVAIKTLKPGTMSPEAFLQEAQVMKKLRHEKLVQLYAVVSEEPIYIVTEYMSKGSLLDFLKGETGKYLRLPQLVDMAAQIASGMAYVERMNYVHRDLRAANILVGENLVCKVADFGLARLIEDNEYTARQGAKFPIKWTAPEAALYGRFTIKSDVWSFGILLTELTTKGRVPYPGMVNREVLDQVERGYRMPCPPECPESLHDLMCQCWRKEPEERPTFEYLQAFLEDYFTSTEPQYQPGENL
Procedure: The compounds were evaluated as inhibitors of human Src kinase using either a radioactivity-based assay or spectrophotometric assay. The compounds were assayed as inhibitors of full length recombinant human Src kinase (from Upstate Biotechnology, cat. no. 14-117) expressed and purified from baculo viral cells. […] P-0275). […] In a typical assay, all the reaction components with the exception of ATP were pre-mixed and aliquoted into assay plate wells. […] The assay plate was incubated at 30° C. for 10 min before initiating the reaction with ^33P-ATP. After 20 min of reaction, the reactions were quenched with 150 μl of 10% trichloroacetic acid (TCA) containing 20 mM Na3PO4. The quenched samples were then transferred to a 96-well filter plate (Whatman, UNI-Filter GF/F Glass Fiber Filter, cat no. 7700-3310) installed on a filter plate vacuum manifold. Filter plates were washed four times with 10% TCA containing 20 mM Na3PO4 and then 4 times with methanol. 200 μl of scintillation fluid was then added to each well. The plates were sealed and the amount of radioactivity associated with the filters was quantified on a TopCount scintillation counter. The radioactivity incorporated was plotted as a function of the inhibitor concentration. The data was fitted to a competitive inhibition kinetics model to get the Ki for the compound. The ADP produced from ATP by the human recombinant Src kinase-catalyzed phosphorylation of poly Glu-Tyr substrate was quanitified using a coupled enzyme assay (Fox et al (1998) Protein Sci 7, 2249). In this assay one molecule of NADH is oxidised to NAD for every molecule of ADP produced in the kinase reaction. The disappearance of NADH can be conveniently followed at 340 nm. […] In a typical assay, all the reaction components with the exception of ATP were pre-mixed and aliquoted into assay plate wells. […] The absorbance change at 340 nm with time, the rate of the reaction, was monitored on a molecular devices plate reader. The data of rate as a function of the inhibitor concentration was fitted to competitive inhibition kinetics model to get the Ki for the compound.

[5] = target: AKT-3 (Homo sapiens, UniProt Q9Y243); experiment: AKT inhibition assay (coupled enzyme assay); format: biochemical; details: 45 nM AKT, 170 μM ATP, 30° C.
AKT-3, sequence (Q9Y243 whole entry, species assumed): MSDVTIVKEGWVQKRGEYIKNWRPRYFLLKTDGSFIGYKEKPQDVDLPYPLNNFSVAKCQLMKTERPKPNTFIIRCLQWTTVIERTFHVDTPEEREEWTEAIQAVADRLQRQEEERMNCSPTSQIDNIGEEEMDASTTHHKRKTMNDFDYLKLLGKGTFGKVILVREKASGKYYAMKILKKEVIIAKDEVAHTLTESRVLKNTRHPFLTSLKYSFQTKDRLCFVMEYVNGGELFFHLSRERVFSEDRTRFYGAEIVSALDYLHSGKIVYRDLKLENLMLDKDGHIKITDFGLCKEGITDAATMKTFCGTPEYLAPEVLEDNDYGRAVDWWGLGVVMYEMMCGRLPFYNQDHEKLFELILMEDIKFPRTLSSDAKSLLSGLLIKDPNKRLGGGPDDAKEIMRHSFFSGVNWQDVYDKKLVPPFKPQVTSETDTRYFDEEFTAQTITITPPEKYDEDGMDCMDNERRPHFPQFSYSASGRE
Procedure: Compounds were screened for their ability to inhibit AKT using a standard coupled enzyme assay (Fox et al., Protein Sci., (1998) 7, 2249). Assays were carried out in a mixture of 100 mM HEPES 7.5, 10 mM MgCl2, 25 mM NaCl, 1 mM DTT and 1.5% DMSO. Final substrate concentrations in the assay were 170 μM ATP (Sigma Chemicals) and 200 μM peptide (RPRAATF, American Peptide, Sunnyvale, Calif.). Assays were carried out at 30° C. and 45 nM AKT. Final concentrations of the components of the coupled enzyme system were 2.5 mM phosphoenolpyruvate, 300 μM NADH, 30 μg/ML pyruvate kinase and 10 μg/ml lactate dehydrogenase.
An assay stock buffer solution was prepared containing all of the reagents listed above, with the exception of AKT, DTT, and the test compound of interest. 56 μl of the stock solution was placed in a 384 well plate followed by addition of 1 μl of 2 mM DMSO stock containing the test compound (final compound concentration 30 μM). The plate was preincubated for about 10 minutes at 30° C. and the reaction initiated by addition of 10 μl of enzyme (final concentration 45 nM) and 1 mM DTT. Rates of reaction were obtained using a BioRad Ultramark plate reader (Hercules, Calif.) over a 5 minute read time at 30° C.

T1 sequence (P49841 whole entry, the tested form may be a part): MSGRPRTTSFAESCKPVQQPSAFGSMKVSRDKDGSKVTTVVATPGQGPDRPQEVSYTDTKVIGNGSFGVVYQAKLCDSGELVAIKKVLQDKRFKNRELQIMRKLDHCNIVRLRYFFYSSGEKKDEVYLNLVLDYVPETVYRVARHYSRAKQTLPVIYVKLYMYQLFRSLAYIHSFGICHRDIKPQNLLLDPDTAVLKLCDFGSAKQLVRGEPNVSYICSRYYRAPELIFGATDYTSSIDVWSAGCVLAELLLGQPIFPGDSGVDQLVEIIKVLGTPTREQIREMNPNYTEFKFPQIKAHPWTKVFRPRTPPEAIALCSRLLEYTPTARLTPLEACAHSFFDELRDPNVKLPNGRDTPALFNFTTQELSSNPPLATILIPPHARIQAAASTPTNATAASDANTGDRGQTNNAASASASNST

Row | Structure (SMILES) | Ki [1] [nM] | melting point [°C] | Ki [2] [nM] | Ki [3] [nM] | Ki ([4]; read-out: Ki value for SRC) [nM] | Ki ([4]; read-out: Ki value on SRC) [nM] | Ki [5] [nM]
1 | Cc1cccc(Sc2nc(Nc3cc(C)[nH]n3)c3ccccc3n2)c1 [IIa-14, [2-(3-Methylphenylsulfanyl)-quinazolin-4-yl]-(5-methyl-2H-pyrazol-3-yl)-amine] | 100 to 1000 | 249 to 250 | < 1000 | < 100 | – | – | –
2 | CC(=O)Nc1ccc(Sc2nc(Nc3cc(C)[nH]n3)c3ccccc3n2)cc1 [IIa-38, [2-(4-Acetamidophenylsulfanyl)-quinazolin-4-yl]-(5-methyl-2H-pyrazol-3-yl)-amine] | 100 to 1000 | – | 1000 to 20000 | < 100 | – | – | –
3 | COc1cccc2c(Nc3cc(C)n[nH]3)nc(Sc3ccc(NC(C)=O)cc3)nc12 [IIa-44, [2-(4-Acetamidophenylsulfanyl)-8-methoxy-quinazolin-4-yl]-(5-methyl-2H-pyrazol-3-yl)-amine] | – | 247 to 249 | 1000 to 20000 | < 100 | 1000 to 6000 | – | –
4 | CC(=O)Nc1ccc(Sc2nc(Nc3cc(C)[nH]n3)c3cccc(O)c3n2)cc1 [IIa-52, [2-(4-Acetamido-phenylsulfanyl)-8-hydroxyquinazolin-4-yl]-(5-methyl-2H-pyrazol-3-yl)-amine] | 1000 to 7000 | 258 to 259 | 1000 to 20000 | < 100 | – | – | –
5 | CCCS(=O)(=O)Nc1ccc(Sc2nc(Nc3cc(C)n[nH]3)c3ccccc3n2)cc1 [IIa-54, (5-Methyl-2H-pyrazol-3-yl)-{2-[4-(propane-1-sulfonylamino)-phenylsulfanyl]-quinazolin-4-yl}-amine] | 100 to 1000 | 272 to 273 | 1000 to 20000 | < 100 | 1000 to 6000 | – | –
6 | c1ccc2c(Nc3cc(C4CC4)[nH]n3)nc(Nc3ccc4cc[nH]c4c3)nc2c1 [IIc-22, (5-Cyclopropyl-2H-pyrazol-3-yl)-[2-(1H-indol-6-ylamino)-quinazolin-4-yl]-amine] | < 100 | – | – | < 100 | – | < 100 | 1000 to 20000
7 | c1ccc(OCCNc2nc(Nc3cc(C4CC4)[nH]n3)c3ccccc3n2)cc1 [IIc-34, (5-Cyclopropyl-2H-pyrazol-3-yl)-[2-(2-phenoxyethylamino)-quinazolin-4-yl]-amine] | 100 to 1000 | 203 | – | < 100 | – | < 100 | –
8 | c1csc(CNc2nc(Nc3cc(C4CC4)[nH]n3)c3ccccc3n2)c1 [IIc-35, (5-Cyclopropyl-2H-pyrazol-3-yl)-[2-(thiophen-2-methylamino)-quinazolin-4-yl]-amine] | < 100 | 212 | – | < 100 | – | < 100 | –
9 | c1cncc(CNc2nc(Nc3cc(C4CC4)[nH]n3)c3ccccc3n2)c1 [IIc-38, (5-Cyclopropyl-2H-pyrazol-3-yl)-[2-(pyridin-3-ylmethylamino)-quinazolin-4-yl]-amine] | < 100 | 193 | – | < 100 | – | < 100 | –
10 | CCc1cccc(Nc2nc(Nc3cc(C4CC4)[nH]n3)c3ccccc3n2)c1 [IIc-41, (5-Cyclopropyl-2H-pyrazol-3-yl)-[2-(3-ethylphenylamino)-quinazolin-4-yl]-amine] | 100 to 1000 | 186 to 188 | – | < 100 | – | < 100 | –
11 | COc1ccc(Nc2nc(Nc3cc(C4CC4)[nH]n3)c3ccccc3n2)cc1OC [IIc-43, (5-Cyclopropyl-2H-pyrazol-3-yl)-[2-(3,4-dimethoxyphenylamino)-quinazolin-4-yl]-amine] | 100 to 1000 | 144 | – | < 100 | – | < 100 | –
12 | COc1cccc(Nc2nc(Nc3cc(C4CC4)[nH]n3)c3ccccc3n2)c1 [IIc-44, (5-Cyclopropyl-2H-pyrazol-3-yl)-[2-(3-methoxyphenylamino)-quinazolin-4-yl]-amine] | 100 to 1000 | 207 to 211 | – | < 100 | – | < 100 | –
13 | Cc1ccc(Cl)c(Nc2nc(Nc3cc(C)[nH]n3)c3ccccc3n2)c1 [IIc-51, [2-(2-Chloro-5-methylphenylamino)-quinazolin-4-yl]-(5-methyl-2H-pyrazol-3-yl)-amine] | 100 to 1000 | 246 to 247 | – | < 100 | – | < 100 | –
14 | Cc1cc(Nc2nc(Nc3ccc(N)cc3)nc3ccccc23)n[nH]1 [IIc-66, [2-(4-Aminophenylamino)-quinazolin-4-yl]-(5-methyl-2H-pyrazol-3-yl)-amine] | 100 to 1000 | 164 to 167 | – | 100 to 1000 | 1000 to 6000 | – | –
15 | Cc1cc(Nc2nc(Nc3ccc(NC(=O)C(C)C)cc3)nc3ccccc23)n[nH]1 [IIc-68, [2-(4-Isobutyrylamino-phenylamino)-quinazolin-4-yl]-(5-methyl-2H-pyrazol-3-yl)-amine] | 1000 to 7000 | 176 to 179 | – | < 100 | 1000 to 6000 | – | –
16 | c1ccc(OCc2nc(Nc3cc(C4CC4)[nH]n3)c3ccccc3n2)cc1 [IId-1, (5-Cyclopropyl-2H-pyrazol-3-yl)-(2-phenoxymethyl-quinazolin-4-yl)-amine] | < 100 | 265 to 267 | – | < 100 | – | < 100 | –
17 | c1ccc(COCc2nc(Nc3cc(C4CC4)[nH]n3)c3ccccc3n2)cc1 [IId-2, (2-Benzyloxymethyl-quinazolin-4-yl)-(5-cyclopropyl-2H-pyrazol-3-yl)-amine] | 100 to 1000 | 211 to 213 | – | < 100 | – | < 100 | –

From patent US6653300B2, “Pyrazole compounds useful as protein kinase inhibitors” (Vertex Pharmaceuticals Incorporated, priority 2000, dated 2003)
